Assay results published in US8685974B2 (Bayer CropScience AG, priority 2009, dated 2014).
Several values for one entry are separate records, joined by “and”; a condition that tells them apart may be missing. Identical values can stand only once. Like-named read-outs stand apart in the source and are kept apart here. Marks after values point to notes of the source that are not given here.

Tests used:
[1] = system: Alternaria solani; assay: Alternaria test (tomato) / protective; type: in vivo; details: 500 ppm active compound, protective spray, evaluated 7 days after inoculation
Method in brief: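 Young tomato plants sprayed protectively with compound formulated in DMF with alkylaryl polyglycol ether emulsifier and diluted in water to the application rate. After inoculation, plants held at 96% rel. humidity and 20° C. Efficacy scored 7 days post-inoculation: 0% equals untreated control, 100% no infection.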

[2] = system: Leptosphaeria nodorum; assay: Leptosphaeria nodorum test (wheat) / protective; type: in vivo; details: 500 ppm active compound, protective spray, evaluated 7-9 days after inoculation
Method in brief: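 Young wheat plants sprayed protectively with compound in DMF/alkylaryl polyglycol ether emulsion diluted in water, then kept in greenhouse at 90% rel. humidity, 22° C. Scored 7-9 days after inoculation as % efficacy, 0% equal to untreated control and 100% no infection.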

[3] = system: Rhizoctonia solani; assay: Rhizoctonia test (rice) / protective; type: in vivo; details: 500 ppm active compound, protective spray, evaluated 4 days after inoculation
Description: Rhizoctonia Test (Rice)/Protective
Solvent: 28.5 parts by weight of acetone
Emulsifier: 1.5 parts by weight of polyoxyethylene alkyl phenyl ether
To produce a suitable preparation of active compound, 1 part by weight of active compound is mixed with the stated amounts of solvent and emulsifier, and the concentrate is diluted with water to the desired concentration.
To test for protective activity, young plants are sprayed with the preparation of active compound at the stated rate of application. One day after spraying, the plants are inoculated with a hypha of the causal agent of rice sheath blight (Rhizoctonia solani). The plants are then placed in an incubator at approximately 25° C. and a relative atmospheric humidity of approximately 100%.
The test is evaluated 4 days after the inoculation. 0% means an efficacy which corresponds to that of the control, while an efficacy of 100% means that no disease is observed.

[4] = system: Cochliobolus miyabeanus; assay: Cochliobolus test (rice) / protective; type: in vivo; details: 500 ppm active compound, protective spray, evaluated 4 days after inoculation
[5] = system: Botrytis cinerea; assay: In vivo test on Botrytis cinerea (grey mould); details: dose of 500 ppm; gherkin plants; grading 5/7 days after contamination
Description: In Vivo Test on Botrytis cinerea (Grey Mould)
The active ingredients tested are prepared by homogenization in a mixture of acetone/Tween/DMSO, then diluted with water to obtain the desired active material
Gherkin plants (Vert petit de Paris variety), sown on a 50/50 peat soil-pozzolana substrate in starter cups and grown at 18-20° C., are treated at the cotyledon Z11 stage by spraying with the active ingredient prepared as described above.
(§1) Plants, used as controls, are treated with an aqueous solution not containing the active material.
After 24 hours, the plants are contaminated by depositing drops of an aqueous suspension of Botrytis cinerea spores (150,000 spores per ml) on upper surface of the leaves. The spores are collected from a 15-day-old culture and are suspended in a nutrient solution composed of: • 20 g/L of gelatine; • 50 g/L of D-fructose; • 2 g/L of NH4NO3; • 1 g/L of KH2PO4.
The contaminated cucumber plants are settled for 5/7 days in a climatic room at 15-11° C. (day/night) and at 80% relative humidity.
Grading is carried out 5/7 days after the contamination, in comparison with the control plants.

[6] = system: Sphaerotheca fuliginea; assay: In vivo test on Sphaerotheca fuliginea (cucurbits powdery mildew); details: dose of 500 ppm; gherkin plants; grading 12 days after contamination
Description: In Vivo Test on Sphaerotheca fuliginea (Cucurbits Powdery Mildew)
(§2) The active ingredients tested are prepared by homogenization in a mixture of acetone/tween/DMSO, then diluted with water to obtain the desired active material.
Gherkin plants (Vert petit de Paris variety) in starter cups, sown on a 50/50 peat soil-pozzolana substrate and grown at 20° C./23° C., are treated at the cotyledon Z10 stage by spraying with the aqueous suspension described above. Plants, used as controls, are treated with an aqueous solution not containing the active material.
After 24 hours, the plants are contaminated by spraying them with an aqueous suspension of Sphaerotheca fuliginea spores (100 000 spores per ml). The spores are collected from a contaminated plants. The contaminated gherkin plants are incubated at about 20° C./25° C. and at 60/70% relative humidity.
Grading (% of efficacy) is carried out 12 days after the contamination, in comparison with the control plants.

[7] = system: Pyrenophora teres; assay: In vivo test on Pyrenophora teres (barley net blotch); details: dose of 500 ppm; barley plants; grading 12 days after contamination
Method in brief: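 Barley plants (Plaisant) grown at 12° C. sprayed at 1-leaf stage with compound in acetone/Tween/DMSO diluted in water; 24 h later inoculated with P. teres spores (12,000 spores/ml). Incubated 24 h at ~20° C., 100% RH, then 12 days at 80% RH; graded 12 days post-inoculation against untreated controls.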

[8] = system: Puccinia recondita; assay: In vivo test on Puccinia recondita (brown rust); details: dose of 500 ppm; wheat plants; grading 10 days after contamination
Description: In Vivo Test on Puccinia recondita (Brown Rust)
as §2
Wheat plants (Scipion variety) sown on 50/50 peat soil-pozzolana substrate in starter cups and grown at 12° C., are treated at the 1-leaf stage (10 cm tall) by spraying with the aqueous suspension described above.
as §1
After 24 hours, the plants are contaminated by spraying the leaves with an aqueous suspension of Puccinia recondita spores (100,000 spores per ml). The spores are collected from a 10-day-old contaminated wheat and are suspended in water containing 2.5 ml/l of tween 80 10%. The contaminated wheat plants are incubated for 24 hours at 20° C. and at 100% relative humidity, and then for 10 days at 20° C. and at 70% relative humidity.
Grading is carried out 10 days after the contamination, in comparison with the control plants.

[9] = system: Mycosphaerella graminicola; assay: In vivo test on Mycosphaerella graminicola (wheat leaf spot); details: dose of 500 ppm; wheat plants; grading 21 to 28 days after contamination
Description: In Vivo Test on Mycosphaerella graminicola (Wheat Leaf Spot)
The active ingredients tested are prepared by homogenization in a mixture of acetone/tween/DMSO, then diluted with water to obtain the desired active material concentration.
Wheat plants (Scipion variety), sown on a 50/50 peat soil-pozzolana substrate in starter cups and grown at 12° C., are treated at the 1-leaf stage (10 cm tall) by spraying with the aqueous suspension described above. Plants, used as controls, are treated with an aqueous solution not containing the active material.
After 24 hours, the plants are contaminated by spraying them with an aqueous suspension of Mycosphaerella graminicola spores (500 000 spores per ml). The spores are collected from a 7-day-old culture. The contaminated wheat plants are incubated for 72 hours at 18° C. and at 100% relative humidity, and then for 21 to 28 days at 90% relative humidity.
Grading (% of efficacy) is carried out 21 to 28 days after the contamination, in comparison with the control plants.

[10] = for logP value of the minor isomer (in parenthesis in column Isomer ratio [d]): main value of the example measured by method [b]
[11] = system: Fusarium proliferatum; assay: Production of fumonisin FB1 by Fusarium proliferatum (microtiter plate, HPLC-MS/MS and OD620); type: cell-based; details: for % inhibition FB1 production at 50 μM: 5 days at 20° C., HPLC-MS/MS; for % inhibition fungal growth at 50 μM: Fusarium proliferatum, OD620 at start and after 5 days
[12] = system: Fusarium graminearum; type: cell-based; details: 50 μM; for % Inhibition of DON/AcDON at 50 μM: 7 days at 28° C.
[13] = system: Pyricularia oryzae; details: in vivo
[14] = system: Peronospora parasitica; assay: In vivo test on Peronospora parasitica (crucifer downy mildew); details: dose of 500 ppm; cabbage plants; grading 5 days after contamination
Description: In Vivo Test on Peronospora parasitica (Crucifer Downy Mildew)
The active ingredients tested are prepared by homogenization in a mixture of acetone/Tween/DMSO, then diluted with water to obtain the desired active material concentration.
Cabbage plants (Eminence variety) in starter cups, sown on a 50/50 peat soil-pozzolana substrate and grown at 18-20° C., are treated at the cotyledon stage by spraying with the aqueous suspension described above.
as §1
After 24 hours, the plants are contaminated by spraying them with an aqueous suspension of Peronospora parasitica spores (50 000 spores per ml). The spores are collected from infected plant.
The contaminated cabbage plants are incubated for 5 days at 20° C., under a humid atmosphere.
Grading is carried out 5 days after the contamination, in comparison with the control plants.

[15] = system: Pyricularia grisea; details: in vivo
[16] = system: Aspergillus parasiticus; type: cell-based; details: for % Inhibition of Aflatoxin at 50 μM: 7 days at 20° C.

SMILES	efficacy [1] [%]	efficacy [3] [%]	efficacy [4] [%]	protection [5]	protection (% of efficacy) [6] [%]	protection [7] [%]	protection [8]	protection (% of efficacy) [9] [%]	log p ([10]; pH 2.7)	protection [14] [%]	logP value of the minor isomer (in parenthesis in column Isomer ratio [d]) ([10]; pH 2.7)	other results
CCC(CC)n1cc(-c2ccncc2)c(-c2ccc(Cl)s2)n1 [Example 64]	80	100	97	98%	98	95	88%	88	2.18^[b]			efficacy [2]: 78%
CC(C)Cn1cc(-c2ccncc2)c(-c2ccc(Cl)s2)n1 [Example 21]				100%	89	100	75% and 85%	85	2.08^[b]			% inhibition FB1 production at 50 μM [11]: 100%; % inhibition fungal growth at 50 μM [11]: 91%; % Inhibition of fungal growth at 50 μM [12]: 96%; % Inhibition of DON/AcDON at 50 μM [12]: 100%
C#CCn1cc(-c2ccncc2)c(-c2ccc(Cl)s2)n1 [Example 47]	95					70	71%		1.54^[b]	100	(1.36)	efficacy [13]: 86%; protection (% of efficacy) [15]: 86%
Nc1cc(-c2cn(CCF)nc2-c2ccc(Cl)s2)ccn1 [Example 296]						70			1.46^[b]			% Inhibition of fungal growth at 50 μM [16]: 47%; % Inhibition of Aflatoxin at 50 μM [16]: 74%
COCn1cc(-c2ccncc2)c(-c2ccc(Cl)s2)n1 [Example 52]				at least 70%	90	86	97%	97	1.38^[b]			
ClC(Cl)=CCn1cc(-c2ccncc2)c(-c2ccc(Cl)s2)n1 [Example 50]		93				70			2.3^[b]		(2.07)	
CCC(C)n1nc(-c2ccc(Cl)s2)c(-c2ccncc2)c1SC (stereo not shown) [Example 298]	95								3.35^[b]			% Inhibition of fungal growth at 50 μM [12]: 38%; % Inhibition of DON/AcDON at 50 μM [12]: 100%; % Inhibition of fungal growth at 50 μM [16]: 64%; % Inhibition of Aflatoxin at 50 μM [16]: 99%
FC(F)(F)Cn1cc(-c2ccncc2)c(-c2ccc(Cl)s2)n1 [Example 54]		100	90						1.88^[b]			
CC(C)Cn1ncc(-c2ccncc2)c1-c1ccc(Cl)s1 [Example 6]					75		70%	70				log p ([10]; pH 2.3): 2.2^[a]
Cn1cc(-c2ccncc2)c(-c2ccc(Cl)s2)n1 [Example 46]	95					70			1.26^[b]	92	(1.17)	efficacy [13]: 93%; protection (% of efficacy) [15]: 93%
C=CC(C)n1cc(-c2ccncc2)c(-c2ccc(Cl)s2)n1 (racemic) [Example 61]		98	92		94		77%	77	1.91^[b]	100	(1.76)	
CC(C)n1cc(-c2ccncc2)c(-c2ccc(Cl)s2)n1 [Example 38]		97	93	100%	83		72%		1.88^[b]	97		efficacy [13]: 98%; protection (% of efficacy) [15]: 98%; % inhibition FB1 production at 50 μM [11]: 100%; % inhibition fungal growth at 50 μM [11]: 88%; log p ([10]; pH 2.3): 1.63^[a];
